In patent US20060069132A1, “Azolecarboxamide herbicides” (priority 2004, published 2006):

What was measured:
barnyardgrass [1] = experiment: Test B pre-/postemergence herbicide test; type: in vivo, Echinochloa crus-galli; conditions: for Barnyardgrass plant response rating: postemergence, visual rating, scale 0 (no effect) to 100 (complete control)
How it was run: (§1)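 Species tested were Echinochloa crus-galli, Ipomoea coccinea, Xanthium strumarium and Oryza sativa, treated both before emergence and at the 1- to 4-leaf stage; rice and barnyardgrass were also tested under flooding at 2 leaves. Greenhouse incubation lasted 13–15 days before visual 0–100 scoring.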

Surinam grass = experiment: Test B pre-/postemergence herbicide test; type: in vivo, Urochloa decumbens; conditions: for Surinam Grass plant response rating: postemergence, visual rating, scale 0 (no effect) to 100 (complete control)
How it was run: (§2)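 Greenhouse pot assay with simultaneous preemergence (treated seed) and postemergence (2–18 cm seedlings) applications of surfactant-containing, non-phytotoxic solvent formulations. Response scored visually 13–15 days later on a 0–100 scale, 100 meaning complete control.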

cocklebur = experiment: Test B pre-/postemergence herbicide test; type: in vivo, Xanthium strumarium; conditions: for Cocklebur plant response rating: postemergence, visual rating, scale 0 (no effect) to 100 (complete control)
How it was run: as §1

corn = experiment: Test B pre-/postemergence herbicide test; type: in vivo, Zea mays; conditions: for Corn plant response rating: postemergence, visual rating, scale 0 (no effect) to 100 (complete control)
How it was run: as §2

large crabgrass = experiment: Test B pre-/postemergence herbicide test; type: in vivo, Digitaria sanguinalis; conditions: for Crabgrass, Large plant response rating: postemergence, visual rating, scale 0 (no effect) to 100 (complete control)
How it was run: as §2

giant foxtail = experiment: Test B pre-/postemergence herbicide test; type: in vivo, Setaria faberi; conditions: for Foxtail, Giant plant response rating: postemergence, visual rating, scale 0 (no effect) to 100 (complete control)
How it was run: as §2

lambsquarters = experiment: Test B pre-/postemergence herbicide test; type: in vivo, Chenopodium album; conditions: for Lambsquarters plant response rating: postemergence, visual rating, scale 0 (no effect) to 100 (complete control)
How it was run: as §2

morningglory = experiment: Test B pre-/postemergence herbicide test; type: in vivo, Ipomoea coccinea; conditions: for Morningglory plant response rating: postemergence, visual rating, scale 0 (no effect) to 100 (complete control)
How it was run: as §1

pigweed = experiment: Test B pre-/postemergence herbicide test; type: in vivo, Amaranthus retroflexus; conditions: for Pigweed plant response rating: postemergence, visual rating, scale 0 (no effect) to 100 (complete control)
How it was run: as §2

rice [2] = experiment: Test B pre-/postemergence herbicide test; type: in vivo, Oryza sativa; conditions: preemergence
How it was run: as §1

velvetleaf = experiment: Test B pre-/postemergence herbicide test; type: in vivo, Abutilon theophrasti; conditions: for Velvetleaf plant response rating: postemergence, visual rating, scale 0 (no effect) to 100 (complete control)
How it was run: as §2

blackgrass = experiment: Test B postemergence herbicide test; type: in vivo, Alopecurus myosuroides; conditions: postemergence, visual rating, scale 0 (no effect) to 100 (complete control)
How it was run: (§3)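 Plants grow to 1- to 4-leaf stage (2–18 cm) for postemergence spraying, or to 2-leaf stage for the paddy test. Formulated compound is applied. Greenhouse holding lasts 13–15 days. Response is scored visually relative to controls, 0 no effect to 100 complete control; a dash means no result.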

wheat = experiment: Test B postemergence herbicide test; type: in vivo, Triticum aestivum; set-up: key to Wheat plant response rating: 0 = no effect, 100 = complete control; conditions: postemergence, visual rating, scale 0 (no effect) to 100 (complete control)
How it was run: (§4)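 After treating 2-leaf paddy plants or 2–18 cm postemergence plants (1 to 4 leaves) with formulated chemical, researchers kept them in a greenhouse for 13–15 days. Effects were judged visually versus controls: 0 indicates none, 100 total control.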

wild oat = experiment: Test B postemergence herbicide test; type: in vivo, Avena fatua; conditions: postemergence, visual rating, scale 0 (no effect) to 100 (complete control)
How it was run: as §4

rice [3] = experiment: Test B flooded paddy test; type: in vivo, Oryza sativa; conditions: 1000 g ai/ha, visual rating, scale 0 to 100 (0 no effect, 100 complete control), 13 to 15 days
How it was run: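 Greenhouse test; postemergence application to plants at 1–4 leaves (2–18 cm); paddy species at 2 leaves; evaluated visually vs controls at 13–15 days; scale 0–100 (100 = complete control).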

[4] = system: small flower umbrella sedge; experiment: Test B flooded paddy test; type: in vivo, Cyperus difformis; conditions: 1000 g ai/ha, visual rating, scale 0 to 100 (0 no effect, 100 complete control), 13 to 15 days
How it was run: as §3

ducksalad [5] = experiment: Test B flooded paddy test; type: in vivo, Heteranthera limosa; conditions: 1000 g ai/ha, visual rating, scale 0 to 100 (0 no effect, 100 complete control), 13 to 15 days
How it was run: as §3

barnyardgrass [6] = experiment: Test B flooded paddy test; type: in vivo, Echinochloa crus-galli; conditions: 1000 g ai/ha, visual rating, scale 0 to 100 (0 no effect, 100 complete control), 13 to 15 days
How it was run: as §3

rice [7] = experiment: Test C flooded paddy test; type: in vivo, Oryza sativa
How it was run: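 Plants were grown to the 1- to 4-leaf stage (2–18 cm) and then treated postemergence, or grown to the 2-leaf stage for the flooded paddy test. They were held in a greenhouse for 12 to 14 days and then scored by eye against controls, where 0 is no effect and 100 is complete control.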

[8] = system: smallflower umbrella sedge; experiment: Test C flooded paddy test; type: in vivo, Cyperus difformis
ducksalad [9] = experiment: Test C flooded paddy test; type: in vivo, Heteranthera limosa
barnyardgrass [10] = experiment: Test C flooded paddy test; type: in vivo, Echinochloa crus-galli
How it was run: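 Weeds and wheat were sprayed after emergence, at a height of 2 to 18 cm (1–4 leaves), and paddy barnyardgrass was flooded and treated at two leaves. Assessment took place 12–14 days later in the greenhouse on a 0-to-100 visual control scale. A dash means no result was obtained.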

[11] = 125 g ai/ha, 0 = no effect, 100 = complete control, preemergence
[12] = 500 g ai/ha, visual rating 0-100, 0 no effect, 100 complete control, preemergence
[13] = 62 g ai/ha, scale 0 to 100 (0 no effect, 100 complete control)
[14] = 125 g ai/ha, scale 0 to 100 (0 no effect, 100 complete control)
[15] = 250 g ai/ha, scale of 0 to 100, 0 is no effect, 100 is complete control
[16] = 500 g ai/ha, visual rating after 12 to 14 days, scale 0 to 100 (0 no effect, 100 complete control)

CCc1nn(C(C)(C)C)cc1C(=O)Nc1cccc(C(C)=O)c1 [Compound 187]
Barnyardgrass plant response rating (0 to 100 scale) (barnyardgrass [1]; [11]): 70 | Plant response rating, Barnyardgrass (barnyardgrass [1]; [12]): 90 | Barnyardgrass plant response rating (barnyardgrass [1]; 125 g ai/ha): 10 | Barnyardgrass plant response rating (barnyardgrass [1]; 500 g ai/ha): 10 | Surinam Grass plant response rating (0 to 100 scale) (Surinam grass; [11]): 30 | Plant response rating, Surinam Grass (Surinam grass; [12]): 70 | Surinam Grass plant response rating (Surinam grass; 125 g ai/ha): 10 | Surinam Grass plant response rating (Surinam grass; 500 g ai/ha): 10 | Cocklebur plant response rating (0 to 100 scale) (cocklebur; [11]): 0 | Plant response rating, Cocklebur (cocklebur; [12]): 0 | Cocklebur plant response rating (cocklebur; 125 g ai/ha): 30 | Cocklebur plant response rating (cocklebur; 500 g ai/ha): 70 | Corn plant response rating (0 to 100 scale) (corn; [11]): 20 | Plant response rating, Corn (corn; [12]): 60 | Corn plant response rating (corn; 125 g ai/ha): 0 | Corn plant response rating (corn; 500 g ai/ha): 20 | Crabgrass, Large plant response rating (0 to 100 scale) (large crabgrass; [11]): 70 | Plant response rating, Crabgrass, Large (large crabgrass; [12]): 100 | Crabgrass, Large plant response rating (large crabgrass; 125 g ai/ha): 10 | Crabgrass, Large plant response rating (large crabgrass; 500 g ai/ha): 10 | Foxtail, Giant plant response rating (0 to 100 scale) (giant foxtail; [11]): 10 | Plant response rating, Foxtail, Giant (giant foxtail; [12]): 70 | Foxtail, Giant plant response rating (giant foxtail; 125 g ai/ha): 10 | Foxtail, Giant plant response rating (giant foxtail; 500 g ai/ha): 10 | Lambsquarters plant response rating (0 to 100 scale) (lambsquarters; [11]): 20 | Plant response rating, Lambsquarters (lambsquarters; [12]): 40 | Lambsquarters plant response rating (lambsquarters; 125 g ai/ha): 0 | Lambsquarters plant response rating (lambsquarters; 500 g ai/ha): 0 | Morningglory plant response rating (0 to 100 scale) (morningglory; [11]): 20 | Plant response rating, Morningglory (morningglory; [12]): 30 | Morningglory plant response rating (morningglory; 125 g ai/ha): 20 | Morningglory plant response rating (morningglory; 500 g ai/ha): 20 | Pigweed plant response rating (0 to 100 scale) (pigweed; [11]): 20 | Plant response rating, Pigweed (pigweed; [12]): 60 | Pigweed plant response rating (pigweed; 125 g ai/ha): 20 | Pigweed plant response rating (pigweed; 500 g ai/ha): 20 | Rice plant response rating (0 to 100 scale) (rice [2]; 125 g ai/ha, 0 = no effect, 100 = complete control): 30 | Plant response rating, Rice (rice [2]; 500 g ai/ha, visual rating 0-100, 0 no effect, 100 complete control): 80 | Velvetleaf plant response rating (0 to 100 scale) (velvetleaf; [11]): 10 | Plant response rating, Velvetleaf (velvetleaf; [12]): 20 | Velvetleaf plant response rating (velvetleaf; 125 g ai/ha): 0 | Velvetleaf plant response rating (velvetleaf; 500 g ai/ha): 10 | Blackgrass plant response rating (blackgrass; 125 g ai/ha): 0 | Blackgrass plant response rating (blackgrass; 500 g ai/ha): 0 | Wheat plant response rating (wheat; 125 g ai/ha): 0 | Wheat plant response rating (wheat; 500 g ai/ha): 0 | Oat, Wild plant response rating (wild oat; 125 g ai/ha): 10 | Oat, Wild plant response rating (wild oat; 500 g ai/ha): 20 | Rice plant response rating (rice [3]): 30 | Sedge, Umbrella plant response rating [4]: 80 | Ducksalad plant response rating (ducksalad [5]): 90 | Barnyardgrass plant response rating (barnyardgrass [6]): 60 | Rice plant response rating (rice [7]; [13]): 15 | Rice plant response rating (rice [7]; [14]): 30 | Rice plant response rating (rice [7]; [15]): 50 | Plant response rating, Rice (rice [7]; [16]): 65 | Sedge, Umbrella plant response rating [8, 13]: 20 | Sedge, Umbrella plant response rating [8, 14]: 65 | Sedge, Umbrella plant response rating [8, 15]: 80 | Plant response rating, Sedge, Umbrella [8, 16]: 85 | Ducksalad plant response rating (ducksalad [9]; [13]): 20 | Ducksalad plant response rating (ducksalad [9]; [14]): 40 | Ducksalad plant response rating (ducksalad [9]; [15]): 85 | Plant response rating, Ducksalad (ducksalad [9]; [16]): 90 | Barnyardgrass plant response rating (barnyardgrass [10]; [13]): 0 | Barnyardgrass plant response rating (barnyardgrass [10]; 125 g ai/ha, scale of 0 to 100, 0 is no effect, 100 is complete control): 25 | Barnyardgrass plant response rating (barnyardgrass [10]; [15]): 60 | Plant response rating, Barnyardgrass (barnyardgrass [10]; [16]): 75
